Assay results reported in patent US10815276B2, “Cell penetrating peptides and methods of making and using thereof” (Entrada Therapeutics, Inc., priority 2014, dated 2020).
Where two headings read alike, the source gives them in different places. Starred links: 1 amine or outer side, 2 acyl side, 3 side chain; linkers in the order of their positions; H or OH if unused. Positions of bridges follow the written chain, without caps; N, C: chain ends. Non-standard residues stand in square brackets, D forms with d. Residues, ends and D or L forms follow the SMILES beside them. *: point of attachment. Lys(5-FITC)NH2 = NC(=O)[C@H](CCCCNC(=S)Nc1ccc2c(c1)C(=O)OC21c2ccc(O)cc2Oc2cc(O)ccc21)N*; Trimesoyl = O=C(c1cc(C(=O)[*:2])cc(C(=O)[*:3])c1)[*:1]; dPhe(4-CN) = N#Cc1ccc(C[C@@H](N)C(=O)O)cc1; Phe(4-F) = N[C@@H](Cc1ccc(F)cc1)C(=O)O; 2Nal = N[C@@H](Cc1ccc2ccccc2c1)C(=O)O; Pip = O=C(O)[C@@H]1CCCCN1; Dap = NC[C@H](N)C(=O)O

Columns and labels:
[1] = biological target: T1, Pin1 (Homo sapiens, UniProt Q13526, S16A/Y23A); assay: Pin1 binding by FA (FITC-labeled peptides); conditions: FITC-labeled peptide, FA; read-out: KD
T1 construct: The full-length human S16A/Y23A mutant Pin1 was expressed and purified from E. coli; made in house

[2] = system: SUV2 (vesicles that mimic the negatively charged endosomal membrane of mammalian cells); assay: Fluorescence polarization membrane binding, SUV2
Excerpt: (§1) Also discussed herein are the CPP sequences in Table 16. All uptake/delivery efficiencies are in Table 17 are relative to that of cFΦR4 (290-1F, 100%). SUV1 are small unilamellar vesicles that mimic the neutral outer membrane of mammalian cells [45% phosphatidylcholine (PC), 20% phosphatidylethanolamine (PE), 20% sphingomyelin (SM), and 15% cholesterol (CHO)]. SUV2 are small unilamellar vesicles that mimic the negatively charged endosomal membrane of mammalian cells [50% PC, 20% PE, 10% phosphatidylinositol (PI), and 20% bis(monoacylglycerol)phosphate].
(§2) Measurements were carried out fluorescence polarization using FITC-labeled cyclic peptides against increasing concentrations of vesicles. Experiments were performed at pH 7.4 and 5.5 (pH inside late endosomes).

[3] = system: cell type (e.g., HeLa cells); assay: Cellular uptake efficiency of cyclic CPPs; format: cell-based; conditions: relative to cFΦR4 (290-1F, 100%)
Method: In particular embodiments, uptake efficiency is determined by comparing (i) the amount of a cyclic cell-penetrating peptide of the invention internalized by a cell type (e.g., HeLa cells) to (ii) the amount of c(FΦRRRRQ) (290-1F) internalized by the same cell type. To measure cellular uptake efficiency, the cell type may be incubated in the presence of a cell-penetrating peptide of the invention for a specified period of time (e.g., 30 minutes, 1 hour, 2 hours, etc.) after which the amount of the cell-penetrating peptide internalized by the cell is quantified. Separately, the same concentration of c(FΦRRRRQ) (290-1F) is incubated in the presence of the cell type over the same period of time, and the amount of the second peptide internalized by the cell is quantified. Quantification can be achieved by fluorescently labeling the cell-penetrating peptide (e.g., with a FTIC dye) and measuring the fluorescence intensity using techniques well-known in the art.
as §1

[4] = system: SUV1 (vesicles that mimic the neutral outer membrane of mammalian cells); assay: Fluorescence polarization membrane binding, SUV1; conditions: pH 7.4; read-out: Membrane Binding KD (mM) SUV1 pH 7.4
Excerpt: as §1, §2

[5] = pH 5.5, read-out: Membrane Binding KD (mM) SUV2 pH 5.5
[6] = pH 7.4, read-out: Membrane Binding KD (mM) SUV2 pH 7.4

Compound	Kd [1]	Kd [2, 5]	Kd [2, 6]	Uptake Efficiency (%) [3]	Kd [4]
C[C@@H]1NC(=O)[C@H](CCCNC(=N)N)NC(=O)[C@H](Cc2ccc3ccccc3c2)NC(=O)[C@@H]2CCCCN2C(=O)[C@@H]([C@H](C)O)NC(=O)[C@H](Cc2ccc(F)cc2)NC(=O)[C@@H](Cc2ccc(C#N)cc2)NC(=O)c2cc3cc(c2)C(=O)NC[C@H](NC(=O)[C@@H](Cc2ccccc2)NC1=O)C(=O)N[C@@H](Cc1ccccc1)C(=O)N[C@@H](Cc1ccc2ccccc2c1)C(=O)N[C@@H](CCCNC(=N)N)C(=O)N[C@@H](CCCNC(=N)N)C(=O)N[C@@H](CCCNC(=N)N)C(=O)N[C@@H](CCCNC(=N)N)C(=O)N[C@H](C(=O)N[C@@H](CCCCN)C(N)=O)CNC3=O [Peptide 38, bicyclo[Tm-(D-4-CyanoPhe-Fpa-D-Thr-Pip-Nal-Arg-Ala-D-Phe)-Dap-(Phe-Nal-Arg-Arg-Arg-Arg-Dap)]-Lys] ([dPhe(4-CN)][Phe(4-F)][dT][Pip][2Nal]RA[dF][Dap]F[2Nal]RRRR[Dap]K-NH2; linker N-9-16 via Trimesoyl; C-terminus assumed)	350 ± 40 nM				
C[C@@H]1NC(=O)[C@H](CCCNC(=N)N)NC(=O)[C@H](Cc2ccc3ccccc3c2)NC(=O)[C@@H]2CCCCN2C(=O)[C@@H]([C@H](C)O)NC(=O)[C@H](Cc2ccc(F)cc2)NC(=O)[C@@H](Cc2ccccc2)NC(=O)c2cc3cc(c2)C(=O)NC[C@H](NC(=O)[C@@H](Cc2ccccc2)NC1=O)C(=O)N[C@@H](CCCNC(=N)N)C(=O)N[C@@H](CCCNC(=N)N)C(=O)N[C@@H](CCCNC(=N)N)C(=O)N[C@@H](CCCNC(=N)N)C(=O)N[C@@H](Cc1ccc2ccccc2c1)C(=O)N[C@@H](Cc1ccccc1)C(=O)N[C@H](C(=O)N[C@@H](CCCCN)C(N)=O)CNC3=O [Peptide 42, bicyclo[Tm-(D-Phe-Fpa-D-Thr-Pip-Nal-Arg-Ala-D-Phe)-Dap-(Arg-Arg-Arg-Arg-Nal-Phe-Dap)]-Lys] ([dF][Phe(4-F)][dT][Pip][2Nal]RA[dF][Dap]RRRR[2Nal]F[Dap]K-NH2; linker N-9-16 via Trimesoyl; C-terminus assumed)	980 ± 180 nM				
N=C(N)NCCC[C@@H]1NC(=O)[C@H](CCC(=O)N[C@@H](CCCCNC(=S)Nc2ccc3c(c2)C(=O)OC32c3ccc(O)cc3Oc3cc(O)ccc32)C(N)=O)NC(=O)[C@H](CCCNC(=N)N)NC(=O)[C@H](CCCNC(=N)N)NC(=O)[C@H](Cc2ccccc2)NC(=O)[C@H](Cc2ccc3ccccc3c2)NC(=O)[C@H](CCCNC(=N)N)NC1=O [Peptide 290-2F, c(RRΦFRRQ)] (cyclo(RR[2Nal]FRRE(Lys(5-FITC)NH2)))		0.025 mM	0.69 mM	47%	1.95 mM
N=C(N)NCCC[C@@H]1NC(=O)[C@H](CCC(=O)N[C@@H](CCCCNC(=S)Nc2ccc3c(c2)C(=O)OC32c3ccc(O)cc3Oc3cc(O)ccc32)C(N)=O)NC(=O)[C@H](CCCNC(=N)N)NC(=O)[C@H](Cc2ccc3ccccc3c2)NC(=O)[C@H](CCCNC(=N)N)NC(=O)[C@H](Cc2ccccc2)NC(=O)[C@H](CCCNC(=N)N)NC1=O [Peptide 290-3F, c(RRFRΦRQ)] (cyclo(RRFR[2Nal]RE(Lys(5-FITC)NH2)))		0.26 mM	0.4 mM	163%	0.22 mM
N=C(N)NCCC[C@@H]1NC(=O)[C@H](CCCNC(=N)N)NC(=O)[C@H](CCCNC(=N)N)NC(=O)[C@H](Cc2ccccc2)NC(=O)[C@H](CCC(=O)N[C@@H](CCCCNC(=S)Nc2ccc3c(c2)C(=O)OC32c3ccc(O)cc3Oc3cc(O)ccc32)C(N)=O)NC(=O)[C@H](Cc2ccc3ccccc3c2)NC(=O)[C@H](CCCNC(=N)N)NC1=O [Peptide 290-4F, c(FRRRRΦQ)] (cyclo(FRRRR[2Nal]E(Lys(5-FITC)NH2)))		0.11 mM	0.54 mM	59%	7.24 mM
N=C(N)NCCC[C@@H]1NC(=O)[C@H](CCCNC(=N)N)NC(=O)[C@H](CCCNC(=N)N)NC(=O)[C@H](Cc2ccc3ccccc3c2)NC(=O)[C@H](Cc2ccccc2)NC(=O)[C@H](CCC(=O)N[C@@H](CCCCNC(=S)Nc2ccc3c(c2)C(=O)OC32c3ccc(O)cc3Oc3cc(O)ccc32)C(N)=O)NC1=O [Peptide 290-5F, c(FΦRRRQ)] (cyclo(F[2Nal]RRRE(Lys(5-FITC)NH2)))		0.066 mM	2.4 mM	97%	10.1 mM
N=C(N)NCCC[C@@H]1NC(=O)[C@H](CCCNC(=N)N)NC(=O)[C@H](CCCNC(=N)N)NC(=O)[C@H](CCCNC(=N)N)NC(=O)[C@H](Cc2ccc3ccccc3c2)NC(=O)[C@H](Cc2ccccc2)NC(=O)[C@H](CCC(=O)N[C@@H](CCCCNC(=S)Nc2ccc3c(c2)C(=O)OC32c3ccc(O)cc3Oc3cc(O)ccc32)C(N)=O)NC(=O)[C@H](CCCNC(=N)N)NC1=O [Peptide 290-6F] (cyclo([2Nal]RRRRRE(Lys(5-FITC)NH2)F))		0.019 mM	0.12 mM	184%	2.2 mM
N=C(N)NCCC[C@@H]1NC(=O)[C@H](CCCNC(=N)N)NC(=O)[C@H](CCCNC(=N)N)NC(=O)[C@H](Cc2ccc3ccccc3c2)NC(=O)[C@H](Cc2ccccc2)NC(=O)[C@H](Cc2ccccc2)NC(=O)[C@H](CCC(=O)N[C@@H](CCCCNC(=S)Nc2ccc3c(c2)C(=O)OC32c3ccc(O)cc3Oc3cc(O)ccc32)C(N)=O)NC(=O)[C@H](CCCNC(=N)N)NC1=O [Peptide 290-7F] (cyclo(FF[2Nal]RRRRE(Lys(5-FITC)NH2)))		0.007 mM	0.11 mM	134%	1.65 mM
N=C(N)NCCC[C@@H]1NC(=O)[C@H](CCC(=O)N[C@@H](CCCCNC(=S)Nc2ccc3c(c2)C(=O)OC32c3ccc(O)cc3Oc3cc(O)ccc32)C(N)=O)NC(=O)[C@H](CCCNC(=N)N)NC(=O)[C@H](Cc2ccc3ccccc3c2)NC(=O)[C@H](CCCNC(=N)N)NC(=O)[C@H](Cc2ccccc2)NC(=O)[C@H](CCCNC(=N)N)NC(=O)[C@H](Cc2ccccc2)NC1=O [Peptide 290-8F] (cyclo(RFRFR[2Nal]RE(Lys(5-FITC)NH2)))		0.082 mM	0.39 mM	98%	0.4 mM

More lines, main results first:

Kd [1]	Compound	Kd [2, 5]	Kd [2, 6]	Uptake Efficiency (%) [3]	Kd [4]
1380 ± 160 nM	C[C@@H]1NC(=O)[C@H](CCCNC(=N)N)NC(=O)[C@H](Cc2ccc3ccccc3c2)NC(=O)[C@@H]2CCCCN2C(=O)[C@@H]([C@H](C)O)NC(=O)[C@H](Cc2ccc(F)cc2)NC(=O)[C@@H](Cc2ccccc2)NC(=O)c2cc3cc(c2)C(=O)NC[C@H](NC(=O)[C@@H](Cc2ccccc2)NC1=O)C(=O)N[C@@H](CCCNC(=N)N)C(=O)N[C@@H](CCCNC(=N)N)C(=O)N[C@@H](Cc1ccc2ccccc2c1)C(=O)N[C@@H](Cc1ccccc1)C(=O)N[C@@H](CCCNC(=N)N)C(=O)N[C@@H](CCCNC(=N)N)C(=O)N[C@H](C(=O)N[C@@H](CCCCN)C(N)=O)CNC3=O [Peptide 43, bicyclo[Tm-(D-Phe-Fpa-D-Thr-Pip-Nal-Arg-Ala-D-Phe)-Dap-(Arg-Arg-Nal-Phe-Arg-Arg-Dap)]-Lys] ([dF][Phe(4-F)][dT][Pip][2Nal]RA[dF][Dap]RR[2Nal]FRR[Dap]K-NH2; linker N-9-16 via Trimesoyl; C-terminus assumed)				
450 ± 50 nM	C[C@@H]1NC(=O)[C@H](CCCNC(=N)N)NC(=O)[C@H](Cc2ccc3ccccc3c2)NC(=O)[C@@H]2CCCCN2C(=O)[C@@H]([C@H](C)O)NC(=O)[C@H](Cc2ccc(F)cc2)NC(=O)[C@@H](Cc2ccccc2)NC(=O)c2cc3cc(c2)C(=O)NC[C@H](NC(=O)[C@@H](Cc2ccccc2)NC1=O)C(=O)N[C@@H](CCCNC(=N)N)C(=O)N[C@@H](Cc1ccc2ccccc2c1)C(=O)N[C@@H](CCCNC(=N)N)C(=O)N[C@@H](Cc1ccccc1)C(=O)N[C@@H](CCCNC(=N)N)C(=O)N[C@@H](CCCNC(=N)N)C(=O)N[C@H](C(=O)N[C@@H](CCCCN)C(N)=O)CNC3=O [Peptide 44, bicyclo[Tm-(D-Phe-Fpa-D-Thr-Pip-Nal-Arg-Ala-D-Phe)-Dap-(Arg-Nal-Arg-Phe-Arg-Arg-Dap)]-Lys] ([dF][Phe(4-F)][dT][Pip][2Nal]RA[dF][Dap]R[2Nal]RFRR[Dap]K-NH2; linker N-9-16 via Trimesoyl; C-terminus assumed)				
460 ± 170 nM	bicyclo[Tm-(D-4-Phe-Fpa-D-Ile-Pip-Nal-Arg-Ala-D-Phe)-Dap-(Phe-Nal-Arg-Arg-Arg-Arg-Dap)]-Lys [Peptide 39]				
710 ± 120 nM	bicyclo[Tm-(D-4-Phe-Fpa-D-Nle-Pip-Nal-Arg-Ala-D-Phe)-Dap-(Phe-Nal-Arg-Arg-Arg-Arg-Dap)]-Lys [Peptide 40]				
870 ± 80 nM	bicyclo[Tm-(D-4-Phe-Fpa-D-homoGlu-Pip-Nal-Arg-Ala-D-Phe)-Dap-(Phe-Nal-Arg-Arg-Arg-Arg-Dap)]-Lys [Peptide 41]				
